This note sets out measurements from US10738035B2, “Hepatitis B antiviral agents” (Enanta Pharmaceuticals, Inc., priority 2015, dated 2020).

A value given as a limit tells only on which side of the number the result lay.

Series [1] is described as follows: Compound toxicity, ATPLite (CC50). The settings on record: human, HepAD38 cells.
Method: (§1) Briefly, cells are passaged upon attaining confluency in DMEM/F12 media in the presence of 10% FBS, Penn/Strep, 250 μg/mL G418, and 1 μg/ml tetracycline. Novel compounds are screened by first washing cells three times with PBS to remove tetracycline, and plating in 96 well plates at 35,000 cells/well. Compounds dissolved in DMSO are then diluted 1:200 into wells containing cells. Five days after compound addition, material is harvested for analysis.
Compound toxicity is evaluated by seeding cells at 15,000 cells/well and treating with compound as described above.
A further series relates to hepatitis B virus (HBV). Briefly: HepAD38 antiviral assay (viral product accumulation, EC50). The conditions noted are these: HePAD38, 120 h, read-out: HepAD38 EC50.

Method for hepatitis B virus (HBV): as §1
On harvest day, virion DNA is obtained by lysing with Sidestep Lysis and Stabilization Buffer and then quantified via quantitative real time PCR. Commercially available ELISA kits are used to quantitate the viral proteins HBsAg (Alpco) or HbeAg (US Biological) by following the manufacturer's recommended protocol after diluting samples to match the linear range of their respective assays.

Consider `Cn1nc(NC(=O)Nc2cc(F)c(F)c(F)c2)cc1S(=O)(=O)N1CCC(O)CC1` [Example 2], for which the CC50 – broadly, the concentration giving 50% cytotoxicity – at 3 days in series [1] was above 30 µM. Also, in the series with hepatitis B virus (HBV), the concentration for a half-maximal effect (EC50) (commonly the concentration giving half of the maximal effect) lay within 1 to 10 µM.
Consider `Cn1nc(NC(=O)N2CCC(O)CC2)c(Cl)c1C(=O)Nc1cc(F)c(F)c(F)c1` [Example 11], for which the CC50 at 3 days in series [1] was above 30 µM. Further, the half-maximal effective concentration (EC50) in the series with hepatitis B virus (HBV) lay in the range of 1 to 10 µM.
For `Cn1nc(NC(=O)OCCO)cc1C(=O)Nc1cc(F)c(F)c(F)c1` [Example 15] the same measures were above 30 µM and below 1 µM.
The matching figures for `C=CCn1nc(NC(=O)N2CCC(O)CC2)cc1C(=O)Nc1cc(F)c(F)c(F)c1` [Example 33]: above 30 µM and 1 to 10 µM.
In series [1], `CN(C(=O)N1CCC(O)CC1)c1cc(C(=O)Nc2cc(F)c(F)c(F)c2)n(C)n1` [Example 58] registered a 50% cytotoxic concentration (CC50) at 3 days above 30 µM. Besides, in the series on hepatitis B virus (HBV), the EC50 was above 10 µM.
The matching figures for `CCc1ccc(NC(=O)c2cc(NC(=O)N3CCC(O)CC3)nn2C)cc1` [Example 66]: above 30 µM and above 10 µM.
The matching figures for `Cn1nc(NC(=O)N2CCC(O)CC2)cc1C(=O)Nc1cccnc1` [Example 37]: above 30 µM and above 10 µM.
The matching figures for `CN(CCO)C(=O)Nc1cc(C(=O)Nc2cc(F)c(F)c(F)c2)n(C)n1` [Example 21]: above 30 µM and 1 to 10 µM.
`Cn1nc(NC(=O)N2CC(O)C2)cc1C(=O)Nc1cc(F)c(F)c(F)c1` [Example 38]: in series [1], the 50% cytotoxic concentration (CC50) at 3 days was 10 to 30 µM. The EC50 in the series on hepatitis B virus (HBV) was below 1 µM.
In the case of `COc1ccc(NC(=O)c2cc(NC(=O)N3CCC(O)CC3)nn2C)cc1` [Example 64], the CC50 at 3 days in series [1] was above 30 µM. Besides, the EC50 in the series on hepatitis B virus (HBV) is above 10 µM.
On to `Cn1nc(NC(=O)N2CCC(O)CC2)cc1C(=O)Nc1cc(F)c(F)c(Cl)c1` [Example 60], for which the CC50 at 3 days in series [1] is below 10 µM. Moreover, the EC50 in the series with hepatitis B virus (HBV) was in the range of 1 to 10 µM.
For `Cn1nc(NC(=O)N2CCC(O)CC2)cc1-c1ncc(-c2cc(F)c(F)c(F)c2)[nH]1` [Example 8], the CC50 at 3 days in series [1] was above 10 µM. Besides, the EC50 in the series on hepatitis B virus (HBV) is above 10 µM.
In the case of `Cn1nc(NC(=O)N2CCC(O)CC2)cc1C(=O)Nc1ccc(F)cc1` [Example 34], the CC50 at 3 days in series [1] is above 30 µM. In addition, in the series with hepatitis B virus (HBV), the concentration giving a half-maximal response (EC50) fell in the range of 1 to 10 µM.
`O=C(Nc1cc(F)c(F)c(F)c1)c1ccc(Cl)c(NC(=O)N2CCC(O)CC2)c1` [Example 7] had a cytotoxic concentration (CC50) at 3 days in series [1] above 30 µM. In addition, the EC50 with hepatitis B virus (HBV) is 1 to 10 µM.
As to `Cn1nc(NC(=O)N2CCC(O)CC2)cc1C(=O)Nc1cc(F)c(F)c(F)c1` [Example 3], in series [1], the cytotoxic concentration (CC50) at 3 days is above 30 µM. Further, in the series with hepatitis B virus (HBV), the EC50 was below 1 µM.
For `CCCN(C)C(=O)Nc1cc(C(=O)Nc2cc(F)c(F)c(F)c2)n(C)n1` [Example 30] the same measures were above 30 µM and below 1 µM.
